# Test results reported in patent US20180228811A1, “GDNF INDUCTION FOR THE TREATMENT OF RETINAL DISORDERS” (THE SCHEPENS EYE RESEARCH INSTITUTE, INC., priority 2014, published 2018).
# Values joined by “and” are separate entries in the source; they are usually repeats but may differ in a detail not shown here. Equal values may be shown once.
# Columns and labels:
# GDNF [1] = test: GDNF induction in mouse eyecups differentiated from induced pluripotent stem cells (ELISA); format: cell-based
# Procedure: (§1) GDNF induction […] was assessed using three retinal-specific cell systems: ARPE19, as a model for human retinal pigment epithelium; human retinal progenitor cells (hRPC), as a substitute for human retinal neurons/glia; and mouse eyecups, differentiated from induced pluripotent stem cells. ARPE19 cells are described in Dunn et al., Exp. Eye Res. 62: 155-169, 1996. To study GDNF induction in a human retinal pigment epithelium cell line, ARPE19, thawed ARPE19 cells (passage 33, ATCC) were plated on fibronectin (Akron)-coated plates (Nunc) in stimulation medium at a density of 10 k cells/sq.cm. The flasks were incubated at standard conditions: 37° C., 5% CO2, 100% humidity. Cells were plated 24 hours prior to Compound I treatment and were grown in Ultraculture medium (Lonza), supplemented with 1×MEM NEAA (Gibco), 1× L-glutamine (Gibco), 1× Antibiotic/antimycotic (Gibco), 2 ng/ml bFGF (Peprotech), 1 ng/ml EGF (Peprotech). […]
# To study GDNF induction in retina-like tissue structures, mouse eyecups were differentiated from wild-type mouse induced pluripotent stem cells according to the protocol described previously (Eiraku, M. & Sasai, Y., Nat Protoc 7, 69-79 (2012)). […] The results of dose-dependent GDNF induction were analyzed by ANOVA (p<0.05).
# GDNF mRNA = GDNF mRNA time-course in ARPE19 cells (qPCR); format: cell-based, human; conditions: ARPE19, 100 nM Compound I, normalized by GAPDH and ßActin
# Procedure: as §1, with “(Peprotech). For qPCR analysis, the experiments were performed in 35 mm Petri dishes in 2 ml of medium with Compound I concentration of 100 nM (DMSO-based solution). Total mRNA was isolated at 0, 15, 30, 60, 120, 240 minutes post stimulation. For protein expression determination by ELISA, the experiments were performed in 96 well plates in 100 ul of medium with each condition (concentrations ranging from 0 to 10 uM) reproduced in 3 wells.” for “(Peprotech).”
# GDNF [2] = test: GDNF induction by Compound I aqueous solution in wild-type mice; format: in vivo, mouse; conditions: 3 hours; for GDNF mRNA induction compared to vehicle-treated control: wild type mice; for GDNF protein upregulation compared to untreated control: wildtype mice, vehicle 1.5 fold
# Procedure: (§2) All animal procedures were performed under general (intraperitoneal ketamine/xylazine) and topical (proparacaine drops) anesthesia. Tropicamide was applied for pupil dilation. After injection, the eye was treated with antibiotic ointment (Bacitracin-Neomycin-Polymyxin). The same procedures were applied to control eyes.
# (§3) To study GDNF induction by Compound I aqueous solution, 1 ul of 10 uM (n=5) or 100 uM (n=5) water-based Compound I or 1 ul of Vehicle (n=5) was administered intravitreally using beveled glass needle, connected to a Hamilton syringe through polyethylene tubing. During the injection, corneal paracenthesis was performed to reduce intraocular pressure. Compound I was injected into 4-week old wildtype (C57/Bl6, Jackson labs) and rhodopsin knockout (Humphries et al., Nat. Genet. 15, 216-219 (1997)).
# (§4) Three hours after the injection animals were euthanized using CO2, then the death was confirmed by cervical dislocation. The treated and untreated eyes were enucleated and placed in 250 ul of chilled RNAlater buffer (Qiagen) and stored at 4° C. Later, eyes were excised and total neural retina with retinal pigment epithelium were collected into 400 ul of Lysis buffer (Qiagen RNeasy kit) with 5 mM beta-mercaptoethanol. Total RNA was isolated using RNeasy kit (Qiagen) and eluted with 100 ul of Ultrapure water (Life technologies). All flow through from RNA isolation (˜2.4 ml) was collected and mixed with 10 ml of ice-cold (−20° C.) acetone for protein precipitation. The protein was precipitated at −20° C. for 30 minutes, then pelleted at 3500 rpm for 20 min. Pellets were washed once with 100% ethanol, then reconstituted with 300 ul of RIPA buffer with 0.2 mM 4-benzenesulfonyl fluoride hydrochloride (Tocris). mRNA and protein expression were assessed by qPCR and Western Blot and normalized to GAPDH and βActin. The statistical analysis was performed using a T-test (p<0.05) with Bonferroni post-hoc test.
# GDNF [3] = test: GDNF induction by Compound I aqueous solution in rhodopsin knockout mice; format: in vivo, mouse; conditions: 3 hours; for GDNF protein upregulation: vehicle 1.2 fold
# Procedure: as §2, §3, §4
# GDNF [4] = test: GDNF induction by Compound I suspension in wild-type mice; format: in vivo, mouse; conditions: suspension intravitreally; for GDNF mRNA induction vs. vehicle / GDNF protein level vs. vehicle: wild-type mice
# Procedure: To study GDNF induction by Compound I suspension (60 mg/ml), 2 ul of suspension (n=35) or Vehicle (n=5) were administered intravitreally to 3-week old wild-type (C57/Bl6) mice. A beveled glass needle connected to a Hamilton syringe through polyethylene tubing was ysed. During the injection, corneal paracenthesis was performed to reduce intraocular pressure.
# Animals were euthanized at several timepoints after injection for enucleation and RNA/protein analysis (n=5 for each timepoint, n=4 for 7 days and 14 days): vehicle at 1 hour, Compound I at 1 hour, 1 day, 2 days, 7 days and 14 days. The treated and untreated eyes were enucleated and were collected for mRNA and protein expression as previously described. The treated and untreated eyes were enucleated and placed in 250 ul of chilled RNAlater buffer (Qiagen) and stored at 4° C. The eyes were excised and total neural retina with retinal pigment epithelium was collected into 400 ul of Lysis buffer (Qiagen RNeasy kit) with beta-mercaptoethanol. Total RNA was isolated using RNeasy kit (Qiagen) and eluted with 100 ul of Ultrapure water (Life technologies). All flow through from RNA isolation (˜2.4 ml) was collected and mixed with 10 ml of ice-cold (−20° C.) acetone for protein precipitation. The protein was precipitated at −20° C. for 30 minutes, then pelleted at 3500 rpm for 20 min. Pellets were washed once with 100% ethanol, then reconstituted with 300 ul of RIPA buffer with AEBSF. mRNA and protein expression were assessed by qPCR and Western blot (WB). The results were analyzed by ANOVA (p<0.05).
smiles,measurement,setting,value
"COc1cc2c(cc1S(=O)(=O)c1ccc(OCc3ccc(Cl)cc3)cc1)CCN(C)CC2 [Compound I, 7-[4-(4-chloro-benzyloxy)-benzenesulfonyl]-8-methoxy-3-methyl-2,3,4,5-tetrahydro-1H-3-benzazepine]",GDNF induction,GDNF [1],More than 2 fold
same,"GDNF induction, result in words",GDNF [1]; 0 to 10 uM,Significant dose-dependent GDNF induction
same,time of GDNF mRNA peak after stimulation,GDNF mRNA,30 min
same,GDNF mRNA induction compared to vehicle-treated control,GDNF [2]; 1 ul of 10 uM solution intravitreally,1.3 fold
same,GDNF mRNA induction compared to vehicle-treated control,GDNF [2]; 1 ul of 100 uM solution intravitreally,1.9 fold
same,GDNF protein upregulation compared to untreated control,GDNF [2]; 10 uM solution intravitreally,2.3 fold
same,GDNF protein upregulation compared to untreated control,GDNF [2]; 100 uM solution intravitreally,2.3 fold
same,GDNF mRNA induction compared to vehicle-treated control,GDNF [3]; 10 uM solution intravitreally,1.8 fold
same,GDNF protein upregulation,GDNF [3]; 10 uM solution intravitreally,> 2 fold and 2.8 fold
same,GDNF mRNA induction compared to vehicle-treated control,GDNF [3]; 100 uM solution intravitreally,1.7 fold
same,GDNF protein upregulation,GDNF [3]; 100 uM solution intravitreally,> 2 fold and 2.6 fold
same,GDNF mRNA upregulation over the time course,"GDNF [4]; C57Bl/6 mice, up to 14 days",> 1.8 fold
same,GDNF protein upregulation over the time course,"GDNF [4]; C57Bl/6 mice, up to 14 days",> 2.8 fold
same,GDNF mRNA induction vs. vehicle,GDNF [4]; 1 hour,1.4 fold
same,GDNF protein level vs. vehicle,GDNF [4]; 1 hour,0.9 fold
same,GDNF mRNA induction vs. vehicle,GDNF [4]; 1 day,1.3 fold
same,GDNF protein level vs. vehicle,GDNF [4]; 1 day,1.6 fold
same,GDNF mRNA induction vs. vehicle,GDNF [4]; 2 days,1.2 fold
same,GDNF protein level vs. vehicle,GDNF [4]; 2 days,2.4 fold
same,GDNF mRNA induction vs. vehicle,GDNF [4]; 7 days,1.8 fold
same,GDNF protein level vs. vehicle,GDNF [4]; 7 days,2.7 fold
same,GDNF mRNA induction vs. vehicle,GDNF [4]; 14 days,1.8 fold
same,GDNF protein level vs. vehicle,GDNF [4]; 14 days,3.2 fold
